Structures are written as SMILES. Where two headings read alike, the source gives them in different places. Bounds are passed on as bounds.

A short description of test [1]: Hemodynamic effects in anesthetized open-chest dogs. Type of test: in vivo, Mongrel dogs. The note with it: Canis lupus familiaris; for change in vivo at 0.3 mg/kg: 0.3 mg/kg iv; for change in vivo at 0.1 mg/kg: 0.1 mg/kg iv; for change in vivo at 1 mg/kg: 1.0 mg/kg iv. Here is the method:
Mongrel dogs of either sex were anesthetized with pentobarbital sodium (30 mg/kg iv). The animals were artificially ventilated with room air. The chest was opened at the left 4th intercostal space. Mean arterial blood pressure (MBP), heart rate (HR), left ventricular pressure (LVP), max. dLVP/dt, mean pulmonary arterial blood pressure (MPAP), cardiac output (CO) and coronary blood flow (Cor. BF) were measured. The test compounds were injected into the femoral vein. Hemodynamic effects of these compounds were compared with that of well known Ca^2+ -antagonists. Table 1 (column 1) indicates the percent changes of MBP and Cor. BF from control values induced by intravenous injection of test compounds.

Another test deals with coronary artery. The test is described as follows: Coronary vasodilating effects, intracoronary injection in anesthetized dogs. The following applies: for Duration of action of coronary vasodilating effect: intracoronary injection; for ED100 pap (dose for 100% increase of Cor. BF): intracoronary, maximum response to papaverine 300 μg ia = 100%. Type of test: in vivo, Mongrel dogs. The method, then: Mongrel dogs of either sex were anesthetized and ventilated as previously described. A thoracotomy was performed at the 4th intercostal space. Following an intravenous injection of […] (1000 units/kg), blood from the distal end of the cannulated carotid artery was pumped into circumflex branch of the left coronary artery using a servocontrolled peristaltic pump which maintained a constant perfusion pressure of 120 mmHg by means of a pump controller. An electromagnetic flow probe was inserted in the circuit to record blood flow through the cannulated coronary artery. The test compounds were administered directly into the rubber tubing connected close to the coronary artery cannula. Coronary vasodilating potency of the test compounds was by calculating the dose required to produce 100% increase of Cor. BF (ED100 pap), when the maximum responses to papaverine at a dose of 300 μg ia was expressed at 100% response.

Test [2] has as its target T1, Beta-adrenoceptor (Rattus norvegicus, UniProt P18090).
T1 construct: from tissue; host or cells: heart in situ of anesthetized male Wistar rats (in vivo, i.v. dosing)
The test is described as follows: Beta-adrenoceptor blocking effects: blockade of positive chronotropic response to isoproterenol. Format: in vivo, male Wistar rats. The following applies: read-out: Beta Blocking ED50. Here is the method: (§1) The rats were pretreated with reserpine (8 mg/kg ip), 18 hr before experiments. […] The heart rate was measured with a cardiotachometer triggered by the QRS of the ECG (lead II) and recorded on a polygraph. After the control response to isoproterenol at a dose of 0.1 μg/kg iv was obtained, the test compound was injected iv in increasing doses at 20 min intervals.

Test [3] deals with T1, Beta-adrenoceptor. The test is described as follows: Intrinsic sympathomimetic activity (ISA), increase in heart rate. Format: in vivo, male Wistar rats. The note with it: increase in HR, reserpinized rats, iv. Here is the method: as §1
In this series of experiments, intrinsic sympathomimetic activity (ISA) was also evaluated. The results are shown in Table 1 (column 4), wherein "-" represents that an increase in HR was scarcely observed, "+" represents an increase in HR of 10 to 19 beats/min, "++" represents an increase in HR of 20 to 29 beats/min, and "+++" represents an increase in HR of above 30 beats/min.

Setting [4] is: read-out: Cor. BF, percent change from control.
Setting [5] is: read-out: MBP, percent change from control.
[6] abbreviates: 50% blockade of chronotropic response to isoproterenol 0.1 μg/kg iv, reserpinized, vagotomized rats, cumulative dose.

T1 sequence (P18090 whole entry): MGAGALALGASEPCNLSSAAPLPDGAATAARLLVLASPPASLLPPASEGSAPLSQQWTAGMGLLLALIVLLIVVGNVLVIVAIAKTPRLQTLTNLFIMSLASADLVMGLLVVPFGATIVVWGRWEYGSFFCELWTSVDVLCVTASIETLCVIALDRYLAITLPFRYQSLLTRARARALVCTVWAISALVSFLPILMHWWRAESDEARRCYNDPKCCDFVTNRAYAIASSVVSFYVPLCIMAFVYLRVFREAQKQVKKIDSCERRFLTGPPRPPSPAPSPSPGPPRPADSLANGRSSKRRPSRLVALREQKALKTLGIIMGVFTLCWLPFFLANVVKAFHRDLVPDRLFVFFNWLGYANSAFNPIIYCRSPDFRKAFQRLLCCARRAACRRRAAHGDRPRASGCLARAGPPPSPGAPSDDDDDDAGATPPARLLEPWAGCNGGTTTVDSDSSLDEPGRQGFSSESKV

On to `COc1ccc([C@@H]2Sc3ccccc3N(CCN(C)C)C(=O)[C@@H]2OC(C)=O)cc1` [Diltiazem, reference compound], for which the figures for the change in vivo at 0.3 mg/kg in test [1] (setting [4]) and in test [1] (setting [5]) were 90% and -30%, respectively. Moreover, the “Duration of action of coronary vasodilating effect” value (shortened to “Duration”) with coronary artery amounted to 20 min. Also, the “ED100 pap (dose for 100% increase of Cor. BF)” value in the test with coronary artery was 51 μg ia.
As to `COC(=O)C1=C(C)NC(C)=C(C(=O)OC)C1c1cc([N+](=O)[O-])ccc1OCCNCC(O)COc1ccccc1` (stereo not drawn) [Example 1, dimethyl 4-[2-[2-(2-hydroxy-3-phenoxypropylamino)ethoxy]-5-nitrophenyl]-2,6-dimethyl-1,4-dihydropyridine-3,5-dicarboxylate], the ED50 on Beta-adrenoceptor [2] (setting [6]) worked out at 0.13 mg/kg. Further, in test [1] (setting [4]), the change in vivo at 0.1 mg/kg came to 21% and the change in vivo at 0.3 mg/kg amounted to 69%. In test [1] (setting [5]), the change in vivo at 0.1 mg/kg is -7% and the change in vivo at 0.3 mg/kg was -17%. In the test on coronary artery, the “Duration” value is 15 min and the “ED100 pap (dose for 100% increase of Cor. BF)” value stood at 75 μg ia. Also, the ISA result on Beta-adrenoceptor [3] is given as “+++ (an increase in HR of above 30 beats/min)”.
With `COC(=O)C1=C(C)NC(C)=C(C(=O)OC)C1c1cc([N+](=O)[O-])ccc1OCCCNCC(O)COc1ccccc1` (stereo not drawn) [Example 8, dimethyl 4-[2-[3-(2-hydroxy-3-phenoxypropylamino)propoxy]-5-nitrophenyl]-2,6-dimethyl-1,4-dihydropyridine-3,5-dicarboxylate], the ED50 on Beta-adrenoceptor [2] (setting [6]) worked out at 0.31 mg/kg. Further, the change in vivo at 1 mg/kg is 10% in test [1] (setting [4]) and -29% in test [1] (setting [5]). The “Duration” value in the test on coronary artery is reported as 60 min. Further, the “ED100 pap (dose for 100% increase of Cor. BF)” value in the test with coronary artery amounted to 645 μg ia. Besides, the ISA result on Beta-adrenoceptor [3] is listed as “+ (an increase in HR of 10 to 19 beats/min)”.
For `CCOC(=O)C1=C(C)NC(C)=C(C(=O)OC)C1c1cc([N+](=O)[O-])ccc1OCCCCNCC(O)COc1ccccc1` (stereo not drawn) [Example 10, ethyl methyl 4-[2-[4-(2-hydroxy-3-phenoxypropylamino)butoxy]-5-nitrophenyl]-2,6-dimethyl-1,4-dihydropyridine-3,5-dicarboxylate], at Beta-adrenoceptor [2] (setting [6]), the ED50 turned out to be 0.73 mg/kg. In addition, in test [1] (setting [4]), the change in vivo at 0.3 mg/kg was found to be 26%. The change in vivo at 0.3 mg/kg in test [1] (setting [5]) was -12%. Further, in the test on coronary artery, the “Duration” value is given as more than 60 min and the “ED100 pap (dose for 100% increase of Cor. BF)” value is 400 μg ia. Also, the ISA entry on Beta-adrenoceptor [3] is listed as “-”.
Take `COC(=O)C1=C(C)NC(C)=C(C(=O)OC)C1c1cc([N+](=O)[O-])ccc1OCCCCCNCC(O)COc1ccccc1` (stereo not drawn) [Example 12, dimethyl 4-[2-[5-(2-hydroxy-3-phenoxypropylamino)pentyloxy]-5-nitrophenyl]-2,6-dimethyl-1,4-dihydropyridine-3,5-dicarboxylate]: on Beta-adrenoceptor [2] (setting [6]), the ED50 worked out at 2.58 mg/kg. The change in vivo at 0.3 mg/kg in test [1] (setting [4]) is 14%; in test [1] (setting [5]), -18%. The “Duration” value with coronary artery is more than 60 min. In addition, in the test with coronary artery, the “ED100 pap (dose for 100% increase of Cor. BF)” value worked out at 475 μg ia. For the same compound, at Beta-adrenoceptor [3], the ISA entry was “-”.
Consider `COC(=O)C1=C(C)NC(C)=C(C(=O)OC)C1c1cc([N+](=O)[O-])ccc1OCCCCNCC(O)COc1ccccc1` (stereo not drawn) [Example 15, dimethyl 4-[2-[4-(2-hydroxy-3-phenoxypropylamino)butoxy]-5-nitrophenyl]-2,6-dimethyl-1,4-dihydropyridine-3,5-dicarboxylate], for which, at Beta-adrenoceptor [2] (setting [6]), the ED50 was determined as 0.7 mg/kg. Further, the change in vivo at 1 mg/kg in test [1] (setting [4]) is 96%; in test [1] (setting [5]), -33%. Moreover, the “Duration” value in the test on coronary artery is reported as more than 60 min. Further, in the test on coronary artery, the “ED100 pap (dose for 100% increase of Cor. BF)” value is 228 μg ia. Further, the ISA entry on Beta-adrenoceptor [3] is listed as “-”.
For `COC(=O)C1=C(C)NC(C)=C(C(=O)OC)C1c1cc([N+](=O)[O-])ccc1OCCCCNC[C@H](O)COc1ccccc1` [Example 16, (S)-(-)-dimethyl 4-[2-[4-(2-hydroxy-3-phenoxypropylamino)butoxy]-5-nitrophenyl]-2,6-dimethyl-1,4-dihydropyridine-3,5-dicarboxylate], the ED50 at Beta-adrenoceptor [2] (setting [6]) was determined as 0.39 mg/kg. The change in vivo at 1 mg/kg in test [1] (setting [4]) worked out at 97%. The change in vivo at 1 mg/kg in test [1] (setting [5]) is -31%. Moreover, in the test with coronary artery, the “Duration” value is recorded as more than 60 min and the “ED100 pap (dose for 100% increase of Cor. BF)” value worked out at 162 μg ia. Further, on Beta-adrenoceptor [3], the ISA result is on record as “-”.
As to `COC(=O)C1=C(C)NC(C)=C(C(=O)OC)C1c1cc([N+](=O)[O-])ccc1OCCCCNC[C@@H](O)COc1ccccc1` [Example 17, (R)-(+)-dimethyl 4-[2-[4-(2-hydroxy-3-phenoxypropylamino)butoxy]-5-nitrophenyl]-2,6-dimethyl-1,4-dihydropyridine-3,5-dicarboxylate], at Beta-adrenoceptor [2] (setting [6]), the ED50 stood at 3.53 mg/kg. In test [1] (setting [4]), the change in vivo at 1 mg/kg amounted to 94%. For the same compound, the change in vivo at 1 mg/kg in test [1] (setting [5]) is -35%. Moreover, in the test with coronary artery, the “Duration” value is more than 60 min and the “ED100 pap (dose for 100% increase of Cor. BF)” value worked out at 158 μg ia. Moreover, on Beta-adrenoceptor [3], the ISA entry was “-”.
As to `CCOC(=O)C1=C(C)NC(C)=C(C(=O)OCC)C1c1cc([N+](=O)[O-])ccc1OCCCCNCC(O)COc1ccccc1` (stereo not drawn) [Example 18, diethyl 4-[2-[4-(2-hydroxy-3-phenoxypropylamino)butoxy]-5-nitrophenyl]-2,6-dimethyl-1,4-dihydropyridine-3,5-dicarboxylate], the median effective dose (ED50) at Beta-adrenoceptor [2] (setting [6]) came to 3.11 mg/kg. In addition, the change in vivo at 0.3 mg/kg in test [1] (setting [4]) is 20%; in test [1] (setting [5]), -13%. Further, the “Duration” value in the test on coronary artery worked out at 60 min. In addition, the “ED100 pap (dose for 100% increase of Cor. BF)” value in the test with coronary artery is given as 285 μg ia. The ISA entry on Beta-adrenoceptor [3] is “-”.
For `COC(=O)C1=C(C)NC(C)=C(C(=O)OC)C1c1cc(S(C)(=O)=O)ccc1OCCCCNCC(O)COc1ccccc1` (stereo not drawn) [Example 23, dimethyl 4-[2-[4-(2-hydroxy-3-phenoxypropylamino)butoxy]-5-methylsulfonylphenyl]-2,6-dimethyl-1,4-dihydropyridine-3,5-dicarboxylate], the ED50 at Beta-adrenoceptor [2] (setting [6]) is 0.03 mg/kg. Also, the results for the change in vivo at 1 mg/kg in test [1] (setting [4]) and in test [1] (setting [5]) were 64% and -32%, respectively. The “Duration” value with coronary artery is more than 60 min. For the same compound, the “ED100 pap (dose for 100% increase of Cor. BF)” value in the test on coronary artery worked out at 780 μg ia. The ISA entry at Beta-adrenoceptor [3] is “-”.
With `COC(=O)C1=C(C)NC(C)=C(C(=O)OC)C1c1cc(Cl)ccc1OCCCCNCC(O)COc1ccccc1` (stereo not drawn) [Example 24, dimethyl 4-[5-chloro-2-[4-(2-hydroxy-3-phenoxypropylamino)butoxy]phenyl]-2,6-dimethyl-1,4-dihydropyr idine-3,5-dicarboxylate], the ED50 at Beta-adrenoceptor [2] (setting [6]) is 1.5 mg/kg. The change in vivo at 1 mg/kg in test [1] (setting [4]) stood at 62%. Also, in test [1] (setting [5]), the change in vivo at 1 mg/kg is -33%. Moreover, in the test on coronary artery, the “Duration” value was 60 min and the “ED100 pap (dose for 100% increase of Cor. BF)” value is on record as 245 μg ia. The ISA entry at Beta-adrenoceptor [3] is “-”.
For `COC(=O)C1=C(C)NC(C)=C(C(=O)OC)C1c1cc(OC)ccc1OCCCCNCC(O)COc1ccccc1` (stereo not drawn) [Example 26, dimethyl 4-[2-[4-(2-hydroxy-3-phenoxypropylamino)butoxy]-5-methoxyphenyl]-2,6-dimethyl-1,4-dihydropyridine-3,5-dicarboxylate], at Beta-adrenoceptor [2] (setting [6]), the ED50 worked out at 0.53 mg/kg. Besides, the change in vivo at 1 mg/kg in test [1] (setting [4]) was 43%. In test [1] (setting [5]), the change in vivo at 1 mg/kg is -38%. Further, in the test with coronary artery, the “Duration” value is 40 min and the “ED100 pap (dose for 100% increase of Cor. BF)” value is listed as 600 μg ia. Also, the ISA entry on Beta-adrenoceptor [3] is “-”.
Consider `COC(=O)C1=C(C)NC(C)=C(C(=O)OC)C1c1cc(SC)ccc1OCCCCNCC(O)COc1ccccc1.Cl` (stereo not drawn) [Example 28, dimethyl 4-[2-[4-(2-hydroxy-3-phenoxypropylamino)butoxy]-5-methylthiophenyl]-2,6-dimethyl-1,4-dihydropyridine-3,5-dicarboxylate hydrochloride], for which, at Beta-adrenoceptor [2] (iv), the ED50 was 0.27 mg/kg. The change in vivo at 1 mg/kg in test [1] (setting [4]) was determined as 70%. Also, the change in vivo at 1 mg/kg in test [1] (setting [5]) is -28%. In the test with coronary artery, the “Duration” value is recorded as 30 min and the “ED100 pap (dose for 100% increase of Cor. BF)” value is recorded as 555 μg ia. The ISA entry at Beta-adrenoceptor [3] was “-”.

A word on the ED50: it is the midpoint of the dose-response relation.

Source of the values: patent US4727082A, “Dihydropyridine compounds and pharmaceutical compositions containing them” (Yamanouchi Pharmaceutical Co., Ltd., priority 1984, dated 1988).
